Laboratory results: USRE35145E, “Substituted phthalocyanine” (Zeneca Limited, priority 1987, dated 1996)

Tests used:
[1] = Near infra-red absorption spectrum in solution (WLmax, ECmax, band width); format: physicochemical
Description: The region from 750 to 1100 nm is of particular importance for optical character recognition (OCR) and for energy conversion, e.g. from laser radiation to heat. Many OCR systems use solid state semi-conductor lasers, which generally emit at 780-830 nm, as the radiation source and photodiode detectors based on silicon which have peak sensitivity around 900 rim.
WLmax is the wavelength of the absorption maximum; and
ECmax is the extinction coefficient at the absorption maximum.

[2] = Solubility in water, MEK, ethanol, glycols; format: physicochemical; conditions: 25° C., percentages by weight
Description: Various applications of the present compounds, especially for printing inks, require products which are soluble in solvents of differing polarities. The major requirements are for water-soluble products (water and water-alcohol or water-glycol mixtures), alcohol (typically methanol, ethanol and propanol) and glycol (typically ethylene glycol and diethylene glycol) soluble products and ketone (typically MEK) soluble products.

Substance: hepta(4-methylphenylthio)-tetra(1-amino-2-thio-phen-1,2-ylene)-CuPc [OTCPC]
- WLmax (wavelength of the absorption maximum) ([1]; in CH3 Cl): 890 nm
- ECmax (extinction coefficient at the absorption maximum) ([1]; in MEK): 46,000
- Solubility [2]: 10%
